Test results as given in ChEMBL document CHEMBL1933015, “Synthesis and evaluation of novel prodrugs of caspase inhibitors” (Bioorg Med Chem Lett, 2012).

Key:
[1] = Clearance in Sprague-Dawley rat at 10 mg/kg, iv; type: ADME, organism-based; design: dose 10 mg/kg, route intravenous; conditions: in vivo
[2] = Half life in Sprague-Dawley rat at 10 mg/kg, po; type: ADME, organism-based; design: dose 10 mg/kg, route oral; conditions: in vivo
[3] = AUC (0 to infinity) in Sprague-Dawley rat at 10 mg/kg, po; type: ADME, organism-based; design: time infinity, dose 10 mg/kg, route oral; conditions: plasma
[4] = Oral bioavailability in Sprague-Dawley rat at 10 mg/kg; type: ADME, organism-based; conditions: in vivo
[5] = Tmax in Sprague-Dawley rat at 10 mg/kg, po; type: ADME, organism-based; design: dose 10 mg/kg, route oral; conditions: in vivo
[6] = Half life in Sprague-Dawley rat at 10 mg/kg, iv; type: ADME, organism-based; design: dose 10 mg/kg, route intravenous; conditions: in vivo
[7] = AUC (0 to infinity) in Sprague-Dawley rat at 10 mg/kg, iv; type: ADME, organism-based; design: time infinity, dose 10 mg/kg, route intravenous; conditions: plasma
Plasma [8] = assay: Half life in rat plasma assessed as < 50% of prodrug is remaining; type: ADME, cell-free
[9] = Permeability from apical to basal side across human Caco2 cells; type: ADME, cell-based; conditions: Caco-2, read-out: permeability
Plasma [10] = assay: Half life in human plasma assessed as around 50% of prodrug is remaining; type: ADME, cell-free
[11] = Half life in buffer at pH 9 assessed as prodrug conversion; type: physicochemical
[12] = Half life in buffer at pH 7.4 assessed as prodrug conversion; type: physicochemical
[13] = Half life in buffer at pH 4 assessed as prodrug conversion; type: physicochemical
[14] = Half life in buffer at pH 6 assessed as prodrug conversion; type: physicochemical
[15] = Permeability from basal to apical side across human Caco2 cells; type: ADME, cell-based; conditions: Caco-2, read-out: permeability
Plasma [16] = assay: Half life in human plasma assessed as < 50% of prodrug is remaining; type: ADME, cell-free
Rattus norvegicus [17] = assay: Half life in Sprague-Dawley rat assessed as prodrug conversion to VX166 at 10 mg/kg, po; type: ADME, organism-based; design: dose 10 mg/kg, route oral; conditions: in vivo
Plasma [18] = assay: Half life in rat plasma assessed as < 10% of prodrug is remaining; type: ADME, cell-free
Rattus norvegicus [19] = assay: Oral bioavailability in Sprague-Dawley rat assessed as VX166 level at 10 mg/kg; type: ADME, organism-based; conditions: in vivo
Rattus norvegicus [20] = assay: Tmax in Sprague-Dawley rat assessed as VX166 level at 10 mg/kg, po; type: ADME, organism-based; design: dose 10 mg/kg, route oral; conditions: in vivo
Rattus norvegicus [21] = assay: AUC (0 to infinity) in Sprague-Dawley rat assessed as VX166 level in plasma at 10 mg/kg, po; type: ADME, organism-based; design: time infinity, dose 10 mg/kg, route oral; conditions: in vivo

| Structure (SMILES) | Papp A→B [9] [×10⁻⁶ cm/s] | t1/2 (Plasma [10]) [min] | t1/2 [11] [min] | t1/2 [12] [h] | t1/2 [13] [h] | t1/2 [14] [h] | Papp B→A [15] [×10⁻⁶ cm/s] | t1/2 (Plasma [18]) [min] | other results |
| --- | --- | --- | --- | --- | --- | --- | --- | --- | --- |
| CC[C@@H](C(=O)N[C@@H](CC(=O)O)C(=O)COc1c(F)c(F)cc(F)c1F)n1cccc(NC(=O)OC)c1=O |  |  |  |  |  |  |  |  | clearance [1]: 22.3 mL/min/kg; half-life [2]: 91.8 min; AUC(0-inf) [3]: 860 ng·h/mL; bioavailability [4]: 14%; Tmax [5]: 19.8 min; half-life [6]: 31.8 min; AUC(0-inf) [7]: 6160 ng·h/mL |
| O=C1C[C@@H]2N=C(c3cccc4ccccc34)O[C@]2(CF)O1 |  | 1 | 48 | 4 | 14.4 | 13.2 |  | < 1 |  |
| C[C@H](NC(=O)C(=O)Nc1ccccc1C(C)(C)C)C(=O)N[C@@H](CC(=O)O)C(=O)COc1c(F)c(F)cc(F)c1F [EMRICASAN] | 0.5 |  |  |  |  |  | 10 |  |  |

Further lines, with some results ahead:

| Papp A→B [9] [×10⁻⁶ cm/s] | t1/2 (Plasma [10]) [min] | t1/2 [11] [min] | t1/2 [12] [h] | t1/2 [13] [h] | t1/2 [14] [h] | Papp B→A [15] [×10⁻⁶ cm/s] | t1/2 (Plasma [18]) [min] | Structure (SMILES) | other results |
| --- | --- | --- | --- | --- | --- | --- | --- | --- | --- |
| 0.5 | 1 | 438 | 29.7 | 1.2 | 24.8 | 10 |  | C[C@H](NC(=O)C(=O)Nc1ccccc1C(C)(C)C)C1=N[C@H]2CC(=O)O[C@@]2(COc2c(F)c(F)cc(F)c2F)O1 | t1/2 (Plasma [8]): < 1 min |
|  |  | 42 | 3.2 | 1.8 | 8.7 |  | < 1 | CC[C@@H](C1=N[C@H]2CC(=O)O[C@@]2(COc2c(F)c(F)cc(F)c2F)O1)n1cccc(NC(=O)OC)c1=O | t1/2 (Plasma [16]): < 1 min; t1/2 (Rattus norvegicus [17]): 58.2 min; F (Rattus norvegicus [19]): 27%; Tmax (Rattus norvegicus [20]): 37.8 min; AUC (Rattus norvegicus [21]): 1.66 µg·h/mL |
